Here are results for 15 compounds from patent US4902698A, “Benzenesulphonamidopyridyl compounds which are useful as thromboxane A 2” (Smith Kline & French Laboratories Limited, priority 1988, dated 1990).

In this assay the target is T1, TXA2 receptors (Homo sapiens, UniProt P21731).
T1 construct: endogenous in cells; host or cells: human platelets
T1 sequence (P21731 1-343): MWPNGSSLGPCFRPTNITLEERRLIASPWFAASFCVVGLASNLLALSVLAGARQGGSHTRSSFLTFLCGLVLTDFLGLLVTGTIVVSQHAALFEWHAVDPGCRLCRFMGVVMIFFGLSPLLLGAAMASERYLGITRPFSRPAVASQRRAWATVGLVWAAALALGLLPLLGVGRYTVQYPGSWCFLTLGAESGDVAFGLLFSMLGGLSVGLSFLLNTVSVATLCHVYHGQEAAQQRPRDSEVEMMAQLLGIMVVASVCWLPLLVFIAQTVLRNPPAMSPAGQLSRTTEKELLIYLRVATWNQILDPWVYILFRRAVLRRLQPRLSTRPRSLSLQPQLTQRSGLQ
The experiment in a line: human platelet binding assay ([125I]PTA-OH as receptor ligand). The following applies: 50% inhibition of specific [^125 I]PTA-OH binding, human platelets. Here is the method: As indicated above, compounds of the formula (I) have biological activity that is indicative of an ability to antagonise TXA2 receptors.
The platelet binding assay used was essentially the method described by Mais et al. J. Pharm. Exp. Ther., 1985, 235(3), 729-734 where [^125 I]PTA-OH was used as the receptor ligand.
The IC50 values represent the concentration which produces a 50% inhibition of specific [^125 I]PTA-OH binding.
The compounds of Examples 1 and 5 were tested in the human platelet binding assay.

Each structure is given as a SMILES string.

In general, IC50 refers to the concentration that inhibits the measured activity by half. Read a low IC50 as higher potency. Compound `O=C(O)CCCc1ccc(NS(=O)(=O)c2ccccc2)cn1` [Example 1, 4-(5-Benzenesulphonamidopyrid-2-yl)butanoic acid] had an IC50 of 1300 nM.
In the case of `O=C(O)CCCc1ccc(NS(=O)(=O)c2ccc(Cl)cc2)cn1` [Example 2, 4-[5-(4-Chlorobenzenesulphonamido)pyrid-2-yl]-butanoic acid] it was 360 nM; in that of `Cc1cc(NS(=O)(=O)c2ccccc2)cnc1CCCC(=O)O` [Example 3, 4-(5-Benzenesulphonamido-3-methylpyrid-2-yl)butanoic acid], 2600 nM; in that of `O=C(O)CCCc1ncccc1NS(=O)(=O)c1ccccc1` [Example 4, 4-(3-Benzenesulphonamidopyrid-2-yl)butanoic acid], 102000 nM.
The figure for `O=C(O)CCCc1ccc(NS(=O)(=O)c2cccc(Cl)c2)cn1` [Example 5, 4-[5-(3-Chlorobenzenesulphonamido)pyrid-2-yl]butanoic acid] is 1200 nM; for `O=C(O)CCCCc1ccc(NS(=O)(=O)c2ccc(Cl)cc2)cn1` [Example 6, 5-[5-(4-Chlorobenzenesulphonamido)pyrid-2-yl]pentanoic acid] it is 1000 nM.
The figure for `O=C(O)CCCCc1ccc(NS(=O)(=O)c2ccccc2)cn1` [Example 7, 5-[5-(Benzenesulphonamido)pyrid-2-yl]pentanoic acid] is 4000 nM.
Consider `O=C(O)CCc1ccc(NS(=O)(=O)c2ccc(Cl)cc2)cn1` [Example 8, 3-[5-(4-Chlorobenzenesulphonamido)pyrid-2-yl]propionic acid], for which the IC50 worked out at 251000 nM.
The figure for `O=C(O)CCCc1ccc(S(=O)(=O)Nc2ccc(Cl)cc2)cn1` [Example 9, 4-[5-(4-Chlorophenylsulphamoyl)pyrid-2-yl]-butanoic acid] is 21000 nM; for `O=C(O)CCCc1ccc(S(=O)(=O)Nc2ccccc2)cn1` [Example 10, 4-[5-(Phenylsulphamoyl)pyrid-2-yl)butanoic acid] it is 28000 nM.
In the case of `COc1ccc(S(=O)(=O)Nc2ccc(CCCC(=O)O)nc2)cc1` [Example 11, 4-[5-(4-Methoxybenzenesulphonamido)pyrid-2-yl]butanoic acid] it was 5200 nM; in that of `O=C(O)CCCc1ccc(NS(=O)(=O)c2cccc(C(F)(F)F)c2)cn1` [Example 12, 4-[5-(3-Trifluoromethylbenzenesulphonamido)-pyrid-2-yl]butanoic acid], 16000 nM; in that of `O=C(O)CCCc1ccc(NS(=O)(=O)c2ccc(Br)cc2)cn1` [Example 13, 4-[5-(4-Bromobenzenesulphonamido)pyrid-2-yl]butanoic acid], 200 nM.
In the case of `Cc1ccc(S(=O)(=O)Nc2ccc(CCCC(=O)O)nc2)cc1` [Example 14, 4-[5-(4-Methylbenzenesulphonamido)pyrid-2-yl]butanoic acid] it was 600 nM.
In turn, `O=C(O)CCCc1ccc(NS(=O)(=O)c2ccc(Cl)c(Cl)c2)cn1` [Example 15, 4-[5-(3,4-Dichlorobenzenesulphonamido)pyrid-2-yl]butanoic acid] showed a 50% inhibitory concentration (IC50) of 2100 nM.
